In patent EP0062319A1, “3-Methyl-1-(2-(3-naphthyloxy)-ethyl)-2-pyrazolin-5-one for the treatment of the metastasis and growth of tumour cells” (BAYER AG, priority 1981, dated 1982):

Legend:
Metastase = conditions: literature, cited from earlier work
B-16a-Melanom-Zellen = conditions: literature; metastasis induced by intravenous B-16a melanoma cells; cited from earlier work
[1] = system: B-16a-amelanotischen Melanom-Zellen; assay: Metastasis of tail-vein injected B-16a melanoma cells (lung tumour colonies) in mice; type: in vivo, C57BL/6J Mäuse; conditions: Theophyllin 200 µg injected 1 h before the tumour cells; 5 x 10^4 cells i.v.; mean ± SEM, n = 6
Excerpt: Wie bereits weiter oben festgestellt wurde, ist die Metastase […], die durch eine Reihe komplizierter Vorgänge dargestellt wird. Gegenwärtig finden zwei "Modell"-Systeme für die Untersuchung der in vivo-Metastase verbreitete Anwendung. Das erste Modellsystem umfaßt die subkutane Injektion der Tumorzellen in das Tier. Die subkutane Injektion der Tumorzellen und anschließende Entwicklung eines Primärtumors, gefolgt von spontaner Metastase, wird als "volle" Metastase betrachtet. Ein anderes Modellsystem umfaßt die Injektion der Tumorzellen durch die Schwanzvene. In Anbetracht der Komplexität der Metastase gilt die Schwanzvenen-Injektion als künstliches und nur partielles Modellsystem, da es nur die Vorgänge während des letzteren Teils der Metastase wiedergibt. Das Schwanzvenen-Modellsystem gilt jedoch auch als außerordentlich günstig im Hinblick auf eine Standardisierung der Versuchsbedingungen [vgl."Methods in Cancer Research", Kapitel VII, Academic Press, Inc., 1978].
Als Kontrolltiere wurden (unbehandelte) C57B1/6J-Mäuse nach folgender Arbeitsweise auf volle Metastase untersucht. Zellsuspensionen der B-16 - und 3LL-Karzinom-Zellen, die wie oben unter A und B beschrieben erhalten worden waren, wurden subkutan in die rechte Achselhöhlenregion der männlichen C57BL/6J-Mäuse injiziert (0,66 mm- = 26 gauge -Nadel; 0,2 ml). Injiziert wurden verschiedene Mengen der Zellsuspensionen im Bereich von 1 x 10^5 bis 1 x 10^6 Zellen. Versuche zur partiellen Metastase wurden in der Weise durchgeführt, daß Tumorzellen über die Schwanzvene in die (unbehandelten) Kontroll-Mäuse injiziert wurden. Die Tiere wurden unter identischen Bedingungen der Temperatur, Lichteinwirkungsdauer, Ernährung etc. gehalten. Nach einem Beobachtungszeitraum von 17 bis 30 Tagen wurden die für die volle Metastase und für die partielle Metastase verwendeten Tiere getötet, und die Lungen, Leber, Nieren, Milz und Gehirn-Gewebe wurde entnommen.
Das entnommene Gewebe wurde in Bouin-Lösung fixiert.
Die Zahl der metastatischen Knötchen in jedem Organ wurde mit Hilfe eines Bausch-und-Lomb Stereo-Zoom-Mikroskops bestimmt. Die Untersuchung der Kontroll- Mäuse auf metastatische Knötchen ergab bei 100 % der Tiere positive Befunde in bezug auf metastatische Lungentumoren; die Inkubationszeit für die Erzeugung solcher Metastasen betrug für die 3LL-Tumorzellen 17 bis 21 Tage und für die B-16 a -Tumorzellen 23 bis 30 Tage. In Leber, Nieren, Milz oder Gehirn-Gewebe wurden keine sichtbaren Knötchen beobachtet.
3 mg 3-Methyl-1-[2-(2-naphthyloxy)-ethyl]-2-pyrazolin-5-on wurden in 0,6 ml absolutem Ethylalkohol suspendiert. Das suspendierte Pyrazolon wurde durch Einstellen des pH auf 9,5 mit NaOH gelöst. […]

Lewis-Lungen-Karzinom = assay: Tumour incidence and final tumour weight of subcutaneous Lewis lung carcinoma in mice; type: in vivo, C57BL/6J Mäuse; conditions: killed day 22
Excerpt: Die antineoplastische Wirksamkeit wurde außerdem durch direkte Messung des Wachstums der Tumorzellen in vitro in Gewebekulturen bestimmt. Diese Methode bedient sich des "Plating" oder Aufimpfens einer bekannten Anzahl von Tumorzellen auf ein Wachstumsmedium und der Bestimmung der Wirkung der Anwesenheit der zu prüfenden Verbindung auf die Tumorzellen-Proliferation. Schließlich wurde die antineoplastische Aktivität in vivo in der Weise bestimmt, daß den Mäusen subkutan Tumorzellen injiziert wurden und das Auftreten von Tumorzellenwachstum sowie das Gewicht der wachsenden Tumorzellen in unbehandelten Kontrolltieren und in mit der Pyrazolon-Verbindung behandelten Tieren bestimmt wurden.
3 mg 3-Methyl-1-[2-(2-naphthyloxy)-ethyl]-2-pyrazolin-5-on wurden in 0,6 ml Ethylalkohol gelöst, und die Lösung wurde mit konzentrierter Natronlauge auf einen pH von 9,5 eingestellt.
Syngeneischen C57BL/6J Wirts-Mäusen wurden 1 x 10^5 Lewis-Lungenkarzinom-Zellen (0,2 ml) subkutan in die Achselhöhlenregion injiziert. Nach einem Zeitraum von 24 Stunden wurde die Pyrazolon-Verbindung 21 Tage lang täglich verabreicht. Die Wirkung der Verabreichung von Theophyllin zusammen mit der Pyrazolon-Verbindung wurde ebenfalls untersucht. Während des Zeitraums wurden die Mäuse unter identischen Bedingungen der Temperatur, Lichteinwirkungsdauer, Ernährung etc. gehalten. Die Mäuse wurden 22 Tage nach der Injektion der Tumorzellen getötet und mittels einer Gesamt-Nekropsie auf die Anwesenheit subkutaner Tumoren untersucht. Vorhandene Tumoren wurden entfernt und auf einer Analysenwaage gewogen.

CC(=O)Oc1ccccc1C(=O)O [Aspirin]
Metastase (Metastase): gemischte Ergebnisse

CCCCC[C@H](O)/C=C/[C@@H]1[C@H]2C/C(=C/CCCC(=O)O)O[C@H]2C[C@H]1O [Prostacyclin]
Metastase (B-16a-Melanom-Zellen): verhindert werden kann

Cn1c(=O)c2[nH]cnc2n(C)c1=O [Theophyllin, reference compound]
Lungen-Tumor-Kolonien [1]: 165 ± 38
Tumor-Häufigkeit Anzahl (Lewis-Lungen-Karzinom; 250 µg Theophyllin daily i.p. in 0,4 ml): 9/12
Tumor-Häufigkeit % (Lewis-Lungen-Karzinom; 250 µg Theophyllin daily i.p.): 75%
Gewicht (Lewis-Lungen-Karzinom; final tumour weight, 250 µg Theophyllin daily i.p.): 1.58 ± 0.42 mg

CC(=O)CC(c1ccccc1)c1c(O)c2ccccc2oc1=O (stereo not shown) [Warfarin]
antimetastatische Wirkungen (Metastase; after intravenous injection of tumour cells and in spontaneously metastasising tumours): signifikante antimetastatische Wirkungen
